Source: US20250367166A1, “NEXT GENERATION DIPROVOCIMS THAT ACTIVATE THE INNATE AND ADAPTIVE IMMUNE RESPONSE” (The Scripps Research Institute, priority 2022, published 2025)
Like-named read-outs stand apart in the source and are kept apart here.

What was measured:
B16-OVA melanoma [1] = details: background; diprovocim/OVA i.m.; cited from earlier work
B16-OVA melanoma [2] = assay: Tumor growth assay, B16-OVA melanoma in immunized mice; assay type: in vivo, C57BL/6J mice; details: inoculation 10 days after the second challenge; anti-mPD-L1 i.p.
Method: (§1) Mice were injected i.m. on day 0 and day 28 (FIG. 1) with 100 μg OVA alone, or 100 μg OVA mixed with vehicle (DMSO:Tween 80:saline=1:1:8), or mixed with 200 μg diprovocim-1 (TNF-α 1) or diprovocim-X (TNF-α 35) per mouse. EndoFit ovalbumin (OVA) with >98% purity minimum (SDS-PAGE) and endotoxin levels <1 EU/mg was purchased from Invivogen.
B16-OVA cells (B16F10 melanoma cells stably expressing chicken ovalbumin) were grown in DMEM containing 10% vol/vol FBS. On day 38 (FIG. 1), a total of 2×10^5 B16-OVA cells in 100 μL PBS were injected s.c. into the right flank of 17 week-old male C57BL/6J mice to establish tumors. On days 41, 44, and 47, the mice were injected i.p. with 200 μg checkpoint inhibitor (anti-mPD-L1, BioXcell) in 100 μL saline. Tumors were measured with a digital caliper (Fisher) and the tumor sizes were calculated using the following formula: volume=0.5×length×width^2. Mice were sacrificed when the tumor length or width reached 2 cm.

[3] = system: SIINFEKL-loaded C57BL/6J splenocytes; assay: In vivo CTL assay after i.m. immunization with OVA plus diprovocim; design: species or system C57BL/6J mice; details: 200 μg diprovocim + 100 μg OVA, 9 days after initial immunization and 9 days after boost
Method: as §1
On day 9 and day 37 (FIG. 1), naive C57BL/6J mice were killed, and splenocytes were collected. […] The unpulsed and peptide-pulsed cells were labeled, respectively, with […] (“low”) or […] (“high”) CellTrace Violet (Invitrogen) in serum-free medium for 20 min. Equal numbers (2×10^6) of CellTrace Violet^high (OVA pulsed) and CellTrace Violet^low (unpulsed) cells were mixed together and injected intravenously into the immunized mice.
After 48 h, blood from treated mice was collected and subjected to flow cytometry analysis. The numbers of remaining live CellTrace Violet^high and CellTrace Violet^low cells were determined and used to calculate the percentage of OVA peptide-pulsed target cells killed. Specific killing was defined as the ratio=CellTrace Violet^low cells/CellTrace Violet^high cells. The percentage of target cell lysis=[1−unimmunized ratio/immunized ratio]×100.

[4] = background; cited from earlier work
[5] = In vivo adjuvant activity, i.m. co-administration with ovalbumin; details: for adjuvant activity in mice (CD4- and CD-8-dependent responses): with OVA, i.m.
Method: C57BL/6J mice were purchased from The Jackson Laboratory. All study procedures using mice were approved by the Institutional Animal Care and Use Committee (IACUC) of the University of Texas Southwestern Medical Center and were conducted in accordance with institutionally approved protocols and guidelines for animal care and use. All the mice were maintained at the University of Texas Southwestern Medical Center in accordance with institutionally approved protocols.
EndoFit ovalbumin (OVA) with >98% purity minimum (SDS-PAGE) and endotoxin levels <1 EU/mg was purchased from Invivogen.

TLR1/TLR2 [6] = target: T1, TLR1/TLR2 (Homo sapiens, UniProt O60603+Q15399); details: table of b113, in parentheses; cited from earlier work
T1 sequence (Q15399 25-786): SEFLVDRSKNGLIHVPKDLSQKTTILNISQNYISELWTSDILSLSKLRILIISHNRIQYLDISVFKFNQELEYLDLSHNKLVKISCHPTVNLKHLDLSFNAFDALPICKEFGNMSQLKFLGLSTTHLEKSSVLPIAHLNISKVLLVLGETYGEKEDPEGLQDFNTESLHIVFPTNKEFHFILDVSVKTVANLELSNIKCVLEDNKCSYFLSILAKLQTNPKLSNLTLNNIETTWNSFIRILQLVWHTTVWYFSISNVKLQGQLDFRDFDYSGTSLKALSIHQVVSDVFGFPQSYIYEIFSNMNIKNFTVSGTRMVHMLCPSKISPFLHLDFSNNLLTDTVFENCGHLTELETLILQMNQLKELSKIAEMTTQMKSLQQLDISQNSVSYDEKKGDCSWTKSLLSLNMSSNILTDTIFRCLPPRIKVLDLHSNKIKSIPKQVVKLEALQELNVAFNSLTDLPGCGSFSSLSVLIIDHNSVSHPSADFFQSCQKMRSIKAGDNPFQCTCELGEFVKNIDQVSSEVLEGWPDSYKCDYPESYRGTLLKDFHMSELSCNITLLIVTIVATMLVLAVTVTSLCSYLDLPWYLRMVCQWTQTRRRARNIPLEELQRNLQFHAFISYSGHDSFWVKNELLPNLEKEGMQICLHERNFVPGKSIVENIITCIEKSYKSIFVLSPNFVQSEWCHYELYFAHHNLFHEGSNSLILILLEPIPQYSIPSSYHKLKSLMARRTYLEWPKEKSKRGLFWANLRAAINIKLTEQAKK
T1 sequence (O60603 21-784): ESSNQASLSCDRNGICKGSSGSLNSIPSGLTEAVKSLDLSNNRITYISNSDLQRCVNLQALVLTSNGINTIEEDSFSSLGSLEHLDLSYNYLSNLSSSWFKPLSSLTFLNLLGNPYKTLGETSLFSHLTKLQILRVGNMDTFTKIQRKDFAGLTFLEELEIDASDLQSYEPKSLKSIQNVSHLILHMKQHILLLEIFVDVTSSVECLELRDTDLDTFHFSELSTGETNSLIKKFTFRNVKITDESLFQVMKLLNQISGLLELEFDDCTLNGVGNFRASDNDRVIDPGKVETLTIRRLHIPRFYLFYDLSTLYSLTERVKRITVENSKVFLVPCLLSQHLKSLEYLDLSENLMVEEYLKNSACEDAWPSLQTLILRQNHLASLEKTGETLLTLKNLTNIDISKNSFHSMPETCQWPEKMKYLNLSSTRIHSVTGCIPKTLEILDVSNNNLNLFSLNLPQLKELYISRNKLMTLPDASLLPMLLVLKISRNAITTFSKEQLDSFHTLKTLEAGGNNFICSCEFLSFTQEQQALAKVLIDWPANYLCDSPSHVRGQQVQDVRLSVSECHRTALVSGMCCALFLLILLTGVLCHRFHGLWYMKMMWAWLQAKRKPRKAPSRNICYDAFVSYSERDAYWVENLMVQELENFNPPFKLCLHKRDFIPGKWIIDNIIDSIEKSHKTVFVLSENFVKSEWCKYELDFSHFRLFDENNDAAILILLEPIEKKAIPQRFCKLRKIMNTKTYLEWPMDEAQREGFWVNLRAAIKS

TLR1/TLR2 [7] = target: T2, TLR1/TLR2 (Mus musculus, UniProt Q9EPQ1+Q9QUN7); details: cited from earlier work
T2 sequence (Q9EPQ1 26-795): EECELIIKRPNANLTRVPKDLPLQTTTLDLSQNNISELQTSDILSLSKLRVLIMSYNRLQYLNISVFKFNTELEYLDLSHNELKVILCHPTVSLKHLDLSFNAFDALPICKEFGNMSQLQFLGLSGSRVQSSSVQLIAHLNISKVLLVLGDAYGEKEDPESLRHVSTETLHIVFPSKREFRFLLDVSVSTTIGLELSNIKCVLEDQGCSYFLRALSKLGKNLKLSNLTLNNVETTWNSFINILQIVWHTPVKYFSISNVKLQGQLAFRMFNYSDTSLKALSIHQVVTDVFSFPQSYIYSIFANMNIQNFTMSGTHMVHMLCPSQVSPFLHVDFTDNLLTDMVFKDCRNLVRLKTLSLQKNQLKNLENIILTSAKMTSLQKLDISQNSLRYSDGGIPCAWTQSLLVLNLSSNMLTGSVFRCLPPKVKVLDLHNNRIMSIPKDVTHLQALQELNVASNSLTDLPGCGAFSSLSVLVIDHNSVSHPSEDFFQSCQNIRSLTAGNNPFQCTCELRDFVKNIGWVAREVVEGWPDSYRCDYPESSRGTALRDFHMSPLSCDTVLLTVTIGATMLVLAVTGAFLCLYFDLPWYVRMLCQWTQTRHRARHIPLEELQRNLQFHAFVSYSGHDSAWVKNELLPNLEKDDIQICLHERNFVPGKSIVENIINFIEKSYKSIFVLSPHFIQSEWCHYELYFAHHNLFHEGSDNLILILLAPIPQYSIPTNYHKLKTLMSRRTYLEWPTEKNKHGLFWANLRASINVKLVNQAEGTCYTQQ
T2 sequence (Q9QUN7 25-784): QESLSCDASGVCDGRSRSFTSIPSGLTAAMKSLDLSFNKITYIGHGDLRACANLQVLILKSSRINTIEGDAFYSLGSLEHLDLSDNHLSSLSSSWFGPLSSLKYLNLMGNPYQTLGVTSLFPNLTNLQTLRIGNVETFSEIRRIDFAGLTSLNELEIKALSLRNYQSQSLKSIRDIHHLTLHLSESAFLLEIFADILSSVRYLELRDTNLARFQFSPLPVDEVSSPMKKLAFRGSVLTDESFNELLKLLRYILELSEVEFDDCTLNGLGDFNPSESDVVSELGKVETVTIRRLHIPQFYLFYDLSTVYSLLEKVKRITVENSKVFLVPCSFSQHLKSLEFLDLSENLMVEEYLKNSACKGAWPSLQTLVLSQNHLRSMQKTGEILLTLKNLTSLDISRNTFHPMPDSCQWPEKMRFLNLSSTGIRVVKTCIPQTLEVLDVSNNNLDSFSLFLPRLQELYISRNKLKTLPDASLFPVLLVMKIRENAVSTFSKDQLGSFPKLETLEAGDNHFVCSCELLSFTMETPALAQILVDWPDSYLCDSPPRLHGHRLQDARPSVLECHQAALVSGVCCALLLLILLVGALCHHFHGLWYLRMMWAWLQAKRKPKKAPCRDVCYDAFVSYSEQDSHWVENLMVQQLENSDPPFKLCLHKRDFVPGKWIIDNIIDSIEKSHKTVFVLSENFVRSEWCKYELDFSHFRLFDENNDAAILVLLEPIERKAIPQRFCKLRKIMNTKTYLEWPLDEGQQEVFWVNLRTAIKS

[8] = system: OVA-specific IgG, IgG1, or IgG2b; assay: Antibody response assay: serum OVA-specific IgG, IgG1, IgG2b by ELISA; assay type: in vivo, C57BL/6J mice; details: 14 days after a single immunization, with OVA
Method: as §1
On day 14 (FIG. 1), serum titers of OVA-specific IgG, IgG1, or IgG2b (SouthernBiotech) were measured by ELISA. Nunc MaxiSorp flat-bottom 96-well microplates (Thermo Fisher Scientific) were coated with 5 μg/mL soluble OVA (Invivogen) and incubated at 4° C. overnight (ca. 18 h). Plates were washed four times with washing buffer (0.05% [vol/vol] Tween-20 in PBS), then blocked with 1% (vol/vol) BSA in PBS for 1 h at room temperature. Serum samples diluted in 1% (vol/vol) BSA were added to the prepared plates and incubated for 2 h. The plates were washed eight times with washing buffer and then incubated with HRP-conjugated goat anti-mouse IgG, IgG1, or IgG2b for 1 h at room temperature. Plates were washed eight times with washing buffer, then developed with SureBlue TMB Microwell Peroxidase Substrate and TMB Stop Solution (KPL). Absorbance was measured at 450 nm on a Synergy Neo2 Plate Reader (BioTek).

TLR1/TLR2 [9] = target: T1, TLR1/TLR2; assay: TNF-α release from PMA-differentiated human THP-1 cells (ELISA);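 note: cells exposed to graded compound concentrations for 4 h, TNF-α quantified in supernatant, LPS as positive and DMSO as negative control, values are duplicate means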
TLR1/TLR2 [10] = target: T2, TLR1/TLR2; assay: TNF-α release from thioglycolate-elicited mouse peritoneal macrophages (ELISA)

For `O=C(N[C@H]1C[C@@H]1c1ccccc1)[C@@H]1CN(C(=O)c2ccc(C(=O)N3C[C@@H](C(=O)N[C@H]4C[C@@H]4c4ccccc4)[C@H](C(=O)N[C@H]4C[C@@H]4c4ccccc4)C3)cc2)C[C@H]1C(=O)N[C@H]1C[C@@H]1c1ccccc1` [Compound 1, reference compound], which “effect of combination with anti-PD-L1 on B16-OVA tumors in mice” value (B16-OVA melanoma [1]) is on record?
Its value is “eradicated tumors”.

What about the “Resistance to B16-OVA melanoma (FIG. 2B)” value (B16-OVA melanoma [2]) of the same molecule?
Its value is “notably enhanced”.

And the “in vivo cytotoxicity against OVA peptide-loaded C57BL/6J splenocytes (CTL, FIG. 2A)” value [3]?
The value was “induced strong in vivo cytotoxicity”.

What about the “adjuvant activity in mice when co-administered i.m. with ovalbumin” value [4] of the same molecule?
The value was “effective adjuvant”.

What about the “overt toxicity when used as an adjuvant” value ([5]; compared with LPS administration) of the same molecule?
Its value is “did not display the overt toxicity”.

And the “adjuvant activity in mice (CD4- and CD-8-dependent responses)” value [5]?
Its value is “comparable adjuvant activity”.

What about the “Efficacy (magnitude) of response versus diprovocim-1 (100%), THP-1” value (“Efficacy (magnitude) … (100%), THP-1” below) (TLR1/TLR2 [6]) of the same molecule?
The value was 100%.

What about the “Efficacy (magnitude) of response versus diprovocim-1 (100%), mouse macrophages” value (from here on “Efficacy (magnitude) … (100%), mouse macrophages”) (TLR1/TLR2 [7]; table of b113, in parentheses) of the same molecule?
Its value is 100%.

What about the “OVA-specific circulating antibodies of different subtypes by ELISA (FIGS. 3A-3C)” value [8] of the same molecule?
The value was “strong responses”.

For `O=C(O)[C@@H]1CN(C(=O)c2ccc(C(=O)N3C[C@@H](C(=O)N[C@H]4C[C@@H]4c4ccccc4)[C@H](C(=O)N[C@H]4C[C@@H]4c4ccccc4)C3)cc2)C[C@H]1C(=O)N[C@H]1C[C@@H]1c1ccccc1` [Compound 2], which “Efficacy (magnitude) … (100%), THP-1” value (TLR1/TLR2 [6]) is on record?
The value was 110%.

And the EC50 (TLR1/TLR2 [7]; table of b113, prior observation ref 15, read-out: EC50 (nM) (mouse): EC50 TNF-α release from mouse macrophages)?
Its EC50 is > 5000 nM.

With `CC(C)(C)OC(=O)NCC(=O)OCCCCCCCCCCCCNC(=O)[C@@H]1CN(C(=O)c2ccc(C(=O)N3C[C@@H](C(=O)N[C@H]4C[C@@H]4c4ccccc4)[C@H](C(=O)N[C@H]4C[C@@H]4c4ccccc4)C3)cc2)C[C@H]1C(=O)N[C@H]1C[C@@H]1c1ccccc1` [Compound 35, 12-((3S,4S)-1-(4-((3S,4S)-3,4-Bis(((1S,2R)-2-phenylcyclopropyl)carbamoyl)-pyrrolidine-1-carbonyl)benzoyl)-4-(((1S,2R)-2-phenyl-cyclopropyl)carbamoyl)-pyrrolidine-3-carboxamido)-dodecyl-2-((tert-butoxycarbonyl)-amino)acetate] as the molecule, how does the “efficacy relative to that of diprovocim-1 in human THP-1 cells” value (TLR1/TLR2 [9]) read?
Its value is 100%.

What about the “Efficacy (magnitude) … (100%), THP-1” value (TLR1/TLR2 [9]; Table 3, in parentheses) of the same molecule?
The value was 100%.

What about the “Efficacy (magnitude) … (100%), THP-1” value (TLR1/TLR2 [9]; Table 5, in parentheses) of the same molecule?
The value was 100%.

And the “Efficacy (magnitude) … (100%), THP-1” value (TLR1/TLR2 [9]; Table 6, in parentheses)?
Its value is 100%.

What about the EC50 (TLR1/TLR2 [9]; read-out: EC50 (nM) (THP-1): EC50 TNF-α release from human THP-1 cells, Table 3) of the same molecule?
Its EC50 is 0.14 nM.

And the EC50 (TLR1/TLR2 [9]; read-out: EC50 (nM) (THP-1): EC50 TNF-α release from human THP-1 cells, Table 5)?
The EC50 was 0.14 nM.

And the EC50 (TLR1/TLR2 [9]; read-out: EC50 (nM) (THP-1): EC50 TNF-α release from human THP-1 cells, Table 6)?
The EC50 was 0.14 nM.

What about the EC50 (TLR1/TLR2 [9]; read-out: EC50 in human THP-1 cells) of the same molecule?
Its EC50 is 0.14 nM.

What about the “Resistance to B16-OVA melanoma (FIG. 2B)” value (B16-OVA melanoma [2]) of the same molecule?
Its value is “notably enhanced”.

What about the “efficacy relative to that of diprovocim-1 in mouse macrophages” value (TLR1/TLR2 [10]) of the same molecule?
The value was 550%.

And the “fold more active than diprovocim-1 in mouse macrophages” value (TLR1/TLR2 [10])?
Its value is 2 fold.

What about the “Efficacy (magnitude) … (100%), mouse macrophages” value (TLR1/TLR2 [10]; Table 3, in parentheses) of the same molecule?
Its value is 550%.

And the “Efficacy (magnitude) … (100%), mouse macrophages” value (TLR1/TLR2 [10]; Table 5, in parentheses)?
Its value is 550%.

And the “Efficacy (magnitude) … (100%), mouse macrophages” value (TLR1/TLR2 [10]; Table 6, in parentheses)?
Its value is 550%.

What about the EC50 (TLR1/TLR2 [10]; read-out: EC50 (nM) (mouse): EC50 TNF-α release from mouse macrophages, Table 3) of the same molecule?
Its EC50 is 0.75 nM.

What about the EC50 (TLR1/TLR2 [10]; read-out: EC50 (nM) (mouse): EC50 TNF-α release from mouse macrophages, Table 5) of the same molecule?
Its EC50 is 0.75 nM.

What about the EC50 (TLR1/TLR2 [10]; read-out: EC50 (nM) (mouse): EC50 TNF-α release from mouse macrophages, Table 6) of the same molecule?
The EC50 was 0.75 nM.

What about the EC50 (TLR1/TLR2 [10]; read-out: EC50 in mouse macrophages) of the same molecule?
The EC50 was 0.75 nM.

What about the “in vivo cytotoxicity against OVA peptide-loaded C57BL/6J splenocytes (CTL, FIG. 2A)” value [3] of the same molecule?
The value was “induced strong in vivo cytotoxicity”.

And the “adjuvant activity in mice (CD4- and CD-8-dependent responses)” value [5]?
The value was “matching or surpassing the activity of diprovocim-1”.

And the “OVA-specific circulating antibodies of different subtypes by ELISA (FIGS. 3A-3C)” value [8]?
Its value is “strong responses”.
